Legend:
Assay in all cases: NCI-60 SRB screen
Assay type in all cases: cell-based
T-47D = test system: T-47D
MDA-MB-435 = test system: MDA-MB-435
PC-3 = test system: PC-3
U251 = test system: U251
K-562 = test system: K-562
NCI-H460 = test system: NCI-H460
KM12 = test system: KM12
NCI-H226 = test system: NCI-H226
OVCAR-8 = test system: OVCAR-8
TK-10 = test system: TK-10
SW-620 = test system: SW-620
HL-60(TB) = test system: HL-60(TB)
[1] = Homo sapiens, read-out: LC50 (the source's name)

Structure (SMILES): COc1ccc2[nH]c(=O)c(/C=C/C(=O)c3ccccc3OC)cc2c1 [CTR-20, (E)-6-Methoxy-3-(3-(2-methoxyphenyl)-3-oxoprop-1-enyl) quinolin-2(1H)-one]
- Log10GI50 (T-47D): -5.98 Molar
- Log10LC50 (T-47D): -4.32 Molar
- Log10TGI (T-47D): -4.93 Molar
- TGI (T-47D): 1.18E-5 Molar
- Growth Percent (T-47D; 1.00E-5 Molar): -2.02%
- GI50 (T-47D; Homo sapiens, T47D): 1.06 µM
- CC50 (T-47D; Homo sapiens, T47D, read-out: LC50 (the source's name)): 47.9 µM
- Percent Growth (T-47D; Log10 Concentration -4.0): -76%
- Percent Growth (T-47D; Log10 Concentration -5.0): 6%
- Percent Growth (T-47D; Log10 Concentration -6.0): 51%
- Percent Growth (T-47D; Log10 Concentration -7.0): 90%
- Percent Growth (T-47D; Log10 Concentration -8.0): 84%
- Log10GI50 (MDA-MB-435): -7.25 Molar
- Log10LC50 (MDA-MB-435): -4.66 Molar
- Log10TGI (MDA-MB-435): -6.56 Molar
- TGI (MDA-MB-435): 2.75E-7 Molar
- Growth Percent (MDA-MB-435; 1.00E-5 Molar): -10.05%
- GI50 (MDA-MB-435; Homo sapiens): 0.0564 µM
- CC50 (MDA-MB-435; [1]): 21.9 µM
- Percent Growth (MDA-MB-435; Log10 Concentration -4.0): -97%
- Percent Growth (MDA-MB-435; Log10 Concentration -5.0): -26%
- Percent Growth (MDA-MB-435; Log10 Concentration -6.0): -46%
- Percent Growth (MDA-MB-435; Log10 Concentration -7.0): 36%
- Percent Growth (MDA-MB-435; Log10 Concentration -8.0): 92%
- Log10GI50 (PC-3): -6.07 Molar
- Log10LC50 (PC-3): -4.59 Molar
- Log10TGI (PC-3): -5.43 Molar
- TGI (PC-3): 3.75E-6 Molar
- Growth Percent (PC-3; 1.00E-5 Molar): 22.06%
- GI50 (PC-3; Homo sapiens): 0.842 µM
- CC50 (PC-3; [1]): 25.9 µM
- Percent Growth (PC-3; Log10 Concentration -4.0): -73%
- Percent Growth (PC-3; Log10 Concentration -5.0): -34%
- Percent Growth (PC-3; Log10 Concentration -6.0): 46%
- Percent Growth (PC-3; Log10 Concentration -7.0): 102%
- Percent Growth (PC-3; Log10 Concentration -8.0): 104%
- Log10GI50 (U251): -6.28 Molar
- Log10LC50 (U251): -5.38 Molar
- Log10TGI (U251): -5.77 Molar
- TGI (U251): 1.70E-6 Molar
- Growth Percent (U251; 1.00E-5 Molar): 5.14%
- GI50 (U251; Homo sapiens, U-251): 0.521 µM
- LC50 (U251; Homo sapiens, U-251): 4.21 µM
- Percent Growth (U251; Log10 Concentration -4.0): -99%
- Percent Growth (U251; Log10 Concentration -5.0): -98%
- Percent Growth (U251; Log10 Concentration -6.0): 29%
- Percent Growth (U251; Log10 Concentration -7.0): 103%
- Percent Growth (U251; Log10 Concentration -8.0): 102%
- Log10GI50 (K-562): -6.79 Molar
- Log10LC50 (K-562): > -4.00 Molar
- Log10TGI (K-562): > -4.00 Molar
- TGI (K-562): > 1.00E-4 Molar
- Growth Percent (K-562; 1.00E-5 Molar): 4.24%
- GI50 (K-562; Homo sapiens, K562): 0.162 µM
- CC50 (K-562; Homo sapiens, K562, read-out: LC50 (the source's name)): > 100 µM
- Percent Growth (K-562; Log10 Concentration -4.0): 4%
- Percent Growth (K-562; Log10 Concentration -5.0): 6%
- Percent Growth (K-562; Log10 Concentration -6.0): 11%
- Percent Growth (K-562; Log10 Concentration -7.0): 61%
- Percent Growth (K-562; Log10 Concentration -8.0): 101%
- Log10GI50 (NCI-H460): -6.42 Molar
- Log10LC50 (NCI-H460): -4.44 Molar
- Log10TGI (NCI-H460): -5.65 Molar
- TGI (NCI-H460): 2.25E-6 Molar
- Growth Percent (NCI-H460; 1.00E-5 Molar): 1.79%
- GI50 (NCI-H460; Homo sapiens): 0.38 µM
- CC50 (NCI-H460; [1]): 36.7 µM
- Percent Growth (NCI-H460; Log10 Concentration -4.0): -71%
- Percent Growth (NCI-H460; Log10 Concentration -5.0): -22%
- Percent Growth (NCI-H460; Log10 Concentration -6.0): 12%
- Percent Growth (NCI-H460; Log10 Concentration -7.0): 102%
- Percent Growth (NCI-H460; Log10 Concentration -8.0): 105%
- Log10GI50 (KM12): -6.49 Molar
- Log10LC50 (KM12): -5.23 Molar
- Log10TGI (KM12): -5.80 Molar
- TGI (KM12): 1.58E-6 Molar
- Growth Percent (KM12; 1.00E-5 Molar): 4.37%
- GI50 (KM12; Homo sapiens): 0.321 µM
- CC50 (KM12; [1]): 5.89 µM
- Percent Growth (KM12; Log10 Concentration -4.0): -86%
- Percent Growth (KM12; Log10 Concentration -5.0): -70%
- Percent Growth (KM12; Log10 Concentration -6.0): 17%
- Percent Growth (KM12; Log10 Concentration -7.0): 84%
- Percent Growth (KM12; Log10 Concentration -8.0): 99%
- Log10GI50 (NCI-H226): -5.48 Molar
- Log10LC50 (NCI-H226): > -4.00 Molar
- Log10TGI (NCI-H226): -4.73 Molar
- TGI (NCI-H226): 1.85E-5 Molar
- Growth Percent (NCI-H226; 1.00E-5 Molar): 38.93%
- GI50 (NCI-H226; Homo sapiens): 3.34 µM
- CC50 (NCI-H226; [1]): > 100 µM
- Percent Growth (NCI-H226; Log10 Concentration -4.0): -47%
- Percent Growth (NCI-H226; Log10 Concentration -5.0): 17%
- Percent Growth (NCI-H226; Log10 Concentration -6.0): 86%
- Percent Growth (NCI-H226; Log10 Concentration -7.0): 99%
- Percent Growth (NCI-H226; Log10 Concentration -8.0): 96%
- Log10GI50 (OVCAR-8): -6.06 Molar
- Log10LC50 (OVCAR-8): -4.46 Molar
- Log10TGI (OVCAR-8): -4.94 Molar
- TGI (OVCAR-8): 1.16E-5 Molar
- Growth Percent (OVCAR-8; 1.00E-5 Molar): 1.18%
- GI50 (OVCAR-8; Homo sapiens): 0.874 µM
- CC50 (OVCAR-8; [1]): 34.4 µM
- Percent Growth (OVCAR-8; Log10 Concentration -4.0): -99%
- Percent Growth (OVCAR-8; Log10 Concentration -5.0): 7%
- Percent Growth (OVCAR-8; Log10 Concentration -6.0): 46%
- Percent Growth (OVCAR-8; Log10 Concentration -7.0): 109%
- Percent Growth (OVCAR-8; Log10 Concentration -8.0): 113%
- Log10GI50 (TK-10): -5.64 Molar
- Log10LC50 (TK-10): -4.44 Molar
- Log10TGI (TK-10): -4.88 Molar
- TGI (TK-10): 1.31E-5 Molar
- Growth Percent (TK-10; 1.00E-5 Molar): 42.01%
- GI50 (TK-10; Homo sapiens): 2.31 µM
- CC50 (TK-10; [1]): 36.4 µM
- Percent Growth (TK-10; Log10 Concentration -4.0): -99%
- Percent Growth (TK-10; Log10 Concentration -5.0): 13%
- Percent Growth (TK-10; Log10 Concentration -6.0): 71%
- Percent Growth (TK-10; Log10 Concentration -7.0): 93%
- Percent Growth (TK-10; Log10 Concentration -8.0): 91%
- Log10GI50 (SW-620): -6.47 Molar
- Log10LC50 (SW-620): -4.31 Molar
- Log10TGI (SW-620): -5.65 Molar
- TGI (SW-620): 2.24E-6 Molar
- Growth Percent (SW-620; 1.00E-5 Molar): 8.40%
- GI50 (SW-620; Homo sapiens): 0.335 µM
- LC50 (50% lethal concentration) (SW-620; Homo sapiens): 49.4 µM
- Percent Growth (SW-620; Log10 Concentration -4.0): -58%
- Percent Growth (SW-620; Log10 Concentration -5.0): -31%
- Percent Growth (SW-620; Log10 Concentration -6.0): 17%
- Percent Growth (SW-620; Log10 Concentration -7.0): 87%
- Percent Growth (SW-620; Log10 Concentration -8.0): 98%
- Log10GI50 (HL-60(TB)): -6.69 Molar
- Log10LC50 (HL-60(TB)): > -4.00 Molar
- Log10TGI (HL-60(TB)): -6.05 Molar
- TGI (HL-60(TB)): 8.83E-7 Molar
- Growth Percent (HL-60(TB); 1.00E-5 Molar): -2.46%
- GI50 (HL-60(TB); Homo sapiens): 0.206 µM
- CC50 (HL-60(TB); [1]): > 100 µM
- Percent Growth (HL-60(TB); Log10 Concentration -4.0): -37%
- Percent Growth (HL-60(TB); Log10 Concentration -5.0): -12%
- Percent Growth (HL-60(TB); Log10 Concentration -6.0): -4%
- Percent Growth (HL-60(TB); Log10 Concentration -7.0): 75%
- Percent Growth (HL-60(TB); Log10 Concentration -8.0): 97%

— PMC5578999, “Novel quinolone chalcones targeting colchicine-binding pocket kill multidrug-resistant cancer cells by inhibiting tubulin activity and MRP1 function” (Scientific Reports, 2017)
